The results in this text go back to the supplement of paper PMC11061612.

Test [1] deals with EB-3 (Burkitt's Lymphoma). Put plainly: Bliss excess, mean over the matrix (fraction); higher = more synergy. The method, boiled down:
(§1)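 Bliss excess equals the observed combination effect minus the expected value EA + EB − EA·EB, where EA and EB are the effects of each agent alone. Combination Emax is the second-highest inhibition within the matrix. Inhibition was scaled from CellTiter-Glo 2.0 luminescence, with 0 set by vehicle wells and 1 by blank wells, after 72 hours of two-drug dosing of cells plated in 1536-well plates.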

In test [2] the test system is OCI-AML5 (Acute Myeloid Leukemia). The test is described as above. The gist of the method: as §1
In test [3] the test system is AsPC-1 (Pancreatic Carcinoma). Description: combination Emax (second highest fraction inhibited in the dose matrix, 72 h); higher = more inhibition; extreme values may be limits of the assay. The method, boiled down: as §1
Test [4] deals with Becker (Low Grade Glioma). Described as above. The method, boiled down:
as §1

In test [5] the test system is CML-T1 (Chronic Myelogenous Leukemia). The description is as above. The gist of the method: as §1
Test [6] has as its system HuO-3N1 (Osteosarcoma). The description is as above. The method, boiled down: as §1
Test [7] deals with KYSE-70 (Esophageal Squamous Cell Carcinoma). The test is described as above. The method, boiled down: as §1
Test [8] concerns LAMA-84 (Chronic Myelogenous Leukemia). The description is as above. The gist of the method: as §1
The subject of test [9] is NCI-H1155 (Non-Small Cell Lung Carcinoma). The test is described as above. The method, boiled down: as §1
Test [10] relates to OV-90 (Ovarian Carcinoma). Described as above. The method, boiled down:
as §1

Test [11] has as its system OVTOKO (Ovarian Carcinoma). The test is described as above. The gist of the method:
as §1

Test [12] relates to PANC-02-03 (Pancreatic Carcinoma). The test is described as above. The method, boiled down: as §1
Test [13] has as its system PC-14 (Lung Adenocarcinoma). The test is described as above. The method, boiled down:
as §1

Test [14] relates to RL95-2 (Endometrial Carcinoma). The description is as above. The gist of the method:
as §1

Test [15] relates to RMG-I (Ovarian Carcinoma). The test is described as above. The gist of the method:
as §1

Test [16] concerns RPMI-8866 (Chronic Myelogenous Leukemia). The test is described as above. The gist of the method:
as §1

The subject of test [17] is RT4 (Bladder Carcinoma). The test is described as above. The gist of the method:
as §1

Test [18] has as its system SJRH30 (Rhabdomyosarcoma). The description is as above. The method, boiled down: as §1
Test [19] relates to SW684 (Other Solid Carcinomas). The description is as above. The method, boiled down:
as §1

Take `NC1(C(=O)N[C@@H](CCO)c2ccc(Cl)cc2)CCN(c2ncnc3[nH]ccc23)CC1` [Capivasertib] + CC(C)n1c(=O)n(C)c2cnc3cc(F)c(-c4ccc(OCCCN5CCCCC5)nc4)cc3c21 [AZD1390] (first compound max 10 µM, 7x7, partner max 0.3 µM): the figures for the Bliss excess in test [1] and in test [2] were 0.0022 and -0.0369, respectively. The “combination Emax” value in test [3] is 0.208; in test [4], 0.522; in [5] it was 0.656; in test [6], 0.46; in [7], 0.259; in test [8] it was 0.328. Moreover, the “combination Emax” value is 0.357 in test [9]; 0.284 in [10]; 0.516 in test [11]; 0.192 in test [12]; 0.392 in [13]; 0.823 in test [14]. Moreover, the “combination Emax” value in test [15] was found to be 0.292; in test [16] it was 0.402; in [17], 0.0517; in test [18], 0.701; in test [19] it was 0.536.

As for `COc1nnc2ccc(N3CCC(c4ccc(OCCN5CCN(C)C(=O)[C@H]5C)cc4)CC3)nn12` [AZD5153] + C[C@@H]1COCCN1C2=NC(=NC(=C2)C3(CC3)[S@](=N)(=O)C)C4=C5C=CNC5=NC=C4 [AZD6738] (first compound max 1 µM, 7x7, partner max 10 µM), the Bliss excess in [1] was -0.104; in test [2], 0.0158. Moreover, the “combination Emax” value amounted to 0.367 in test [3]; 0.536 in test [4]; 0.976 in test [5]; 0.427 in test [6]; 0.424 in test [7]; 0.97 in [8]. The “combination Emax” value in test [9] worked out at 0.942; in test [10], 0.563; in [11], 0.661; in test [12], 0.727; in test [13] it was 0.85; in [14] it was 0.733. Moreover, the “combination Emax” value in [15] was found to be 0.561; in test [16], 0.958; in test [17], 0.708; in test [18], 0.945; in test [19] it was 0.464.

Take `NC1(C(=O)N[C@@H](CCO)c2ccc(Cl)cc2)CCN(c2ncnc3[nH]ccc23)CC1` [Capivasertib] + CC(=O)c1c(C)c2cnc(Nc3ccc(N4CCNCC4)cn3)nc2n(C2CCCC2)c1=O [Palbociclib] (first compound max 10 µM, 7x7, partner max 10 µM): the Bliss excess in test [1] is -0.0328; in test [2], -0.0096. For the same compound, the “combination Emax” value in [3] turned out to be 0.396; in test [4] it was 0.624; in test [5], 0.939; in test [6] it was 0.432; in test [7], 0.377; in [8] it was 0.558. Besides, the “combination Emax” value in test [9] was 0.566; in test [10], 0.305; in test [11], 0.572; in test [12], 0.202; in test [13], 0.582; in test [14], 0.904. Moreover, the “combination Emax” value in [15] was found to be 0.288; in test [16], 0.75; in test [17], 0.362; in test [18], 0.794; in [19] it was 0.54.

On to `NC1(C(=O)N[C@@H](CCO)c2ccc(Cl)cc2)CCN(c2ncnc3[nH]ccc23)CC1` [Capivasertib] + Cn1cnc2c(F)c(Nc3ccc(Br)cc3Cl)c(C(=O)NOCCO)cc21 [Selumetinib] (first compound max 10 µM, 7x7, partner max 10 µM), for which the Bliss excess is -0.0424 in [1] and 0.0645 in test [2]. The “combination Emax” value in test [3] came to 0.491; in test [4] it was 0.65; in [5], 0.828; in test [6], 0.439; in test [7], 0.374; in [8] it was 0.977. Also, the “combination Emax” value in test [9] came out at 0.473; in [10], 0.627; in test [11], 0.565; in [12], 0.572; in [13] it was 0.834; in [14] it was 1. In addition, the “combination Emax” value amounted to 0.392 in test [15]; 0.432 in [16]; 0.45 in test [17]; 0.769 in [18]; 0.626 in test [19].

Regarding `Cn1cnc2c(F)c(Nc3ccc(Br)cc3Cl)c(C(=O)NOCCO)cc21` [Selumetinib] + C=CCn1c(=O)c2cnc(Nc3ccc(N4CCN(C)CC4)cc3)nc2n1-c1cccc(C(C)(C)O)n1 [AZD1775] (first compound max 10 µM, partner max 1 µM), the values for the Bliss excess in test [1] and in test [2] were -0.0729 and 0.036, respectively. Moreover, the “combination Emax” value amounted to 0.437 in [3]; 0.309 in test [4]; 0.939 in [5]; 0.259 in [6]; 0.328 in [7]; 0.973 in [8]. Further, the “combination Emax” value amounted to 0.342 in test [9]; 0.628 in test [10]; 0.452 in [11]; 0.572 in [12]; 0.928 in [13]; 0.587 in test [14]. Also, the “combination Emax” value in test [15] amounted to 0.359; in test [16], 0.956; in test [17] it was 0.368; in test [18], 0.846; in test [19], 0.152.

In the case of `CS(=O)(=O)CCNCc1ccc(-c2ccc3ncnc(Nc4ccc(OCc5cccc(F)c5)c(Cl)c4)c3c2)o1` [Lapatinib] + C[C@@H](Oc1cc(-c2cnn(C3CCNCC3)c2)cnc1N)c1c(Cl)ccc(F)c1Cl [Crizotinib] (first compound max 10 µM, 7x7, partner max 10 µM), the values for the Bliss excess in test [1] and in [2] were -0.0572 and -0.003, respectively. The “combination Emax” value was found to be 0.345 in test [3]; 0.725 in [4]; 0.965 in test [5]; 0.876 in test [6]; 0.585 in test [7]; 1 in test [8]. In addition, the “combination Emax” value came to 0.61 in [9]; 0.578 in test [10]; 0.902 in [11]; 0.735 in [12]; 1 in [13]; 0.934 in test [14]. Moreover, the “combination Emax” value in test [15] is 0.851; in [16] it was 0.884; in test [17] it was 0.916; in test [18], 0.955; in [19] it was 0.523.

Turning to `CC(=O)c1c(C)c2cnc(Nc3ccc(N4CCNCC4)cn3)nc2n(C2CCCC2)c1=O` [Palbociclib] + CN(CC[C@H](CSC1=CC=CC=C1)NC2=C(C=C(C=C2)S(=O)(=O)NC(=O)C3=CC=C(C=C3)N4CCC(CC4)[C@H](C5=CC=CC=C5C6=CC=C(C=C6)Cl)O)S(=O)(=O)C(F)(F)F)CCO [AZD4320] (first compound max 10 µM, 7x7, partner max 1 µM), the Bliss excess in [2] was -0.0327. The “combination Emax” value in test [3] was found to be 0.488; in test [6], 0.494; in test [9], 0.994; in test [11] it was 0.53; in test [13], 0.311; in test [14], 0.358. Also, the “combination Emax” value in test [16] came to 0.927; in test [17], 0.383; in [18] it was 0.37.
